Legend:
E. coli 3174 = test: Broth microdilution MIC (strain enzymes: TEM-1, CTXM-15); assay type: cell-based
[1] = tested on: ceftibuten-resistant Enterobacteriaceae expressing OXA-48 (n=20); test: Checkerboard broth microdilution MIC, BLI concentration impact; assay type: cell-based; conditions: for MIC50: read-out: CTB MIC50; for MIC90: read-out: CTB MIC90
Protocol: (§1) Minimum inhibitory concentrations (MICs) were determined by broth microdilution method following CLSI guidelines. Tested strains were ceftibuten-resistant Enterobacteriaceae expressing ESBL (n=20), KPC (n=20), OXA-48 (n=20) and/or Class C (n=20) beta-lactamases. For each isolate, one microtiter plate was prepared and formatted as a checkerboard with the BLI (Compound 2 or clavulanic acid) titrated down the plate and ceftibuten titrated across the plate. Each agent was also tested alone. MICs were determined as the well with the lowest concentration of ceftibuten without visible growth at each concentration of BLI.

[2] = tested on: ceftibuten-resistant Enterobacteriaceae, All isolates; test: as above; assay type: cell-based; conditions: for MIC50: read-out: CTB MIC50; for MIC90: read-out: CTB MIC90
Protocol: as §1

[3] = tested on: ceftibuten-resistant Enterobacteriaceae expressing ESBL (n=20); test: as above; assay type: cell-based; conditions: for MIC50: read-out: CTB MIC50; for MIC90: read-out: CTB MIC90
Protocol: as §1

[4] = tested on: ceftibuten-resistant Enterobacteriaceae expressing Class C (n=20); test: as above; assay type: cell-based; conditions: for MIC50: read-out: CTB MIC50; for MIC90: read-out: CTB MIC90
Protocol: as §1

[5] = tested on: KPC-expressing Enterobacteriaceae (n = 77); test: organism not typed; assay type: cell-based
[6] = tested on: 21 strains of Enterobacteriaceae expressing various beta-lactamases; test: MIC testing of thigh model strains; assay type: cell-based
[7] = tested on: AmpC/CMY-expressing Enterobacteriaceae (n = 44); test: Broth microdilution MIC, ceftibuten/Compound 2 vs IV comparators; assay type: cell-based
[8] = Single ascending dose pharmacokinetics, Solutol HS-15:Water (20:80); assay type: in vivo, Sprague-Dawley rats; conditions: male, Sprague-Dawley, rat, plasma, iv, 10 mg/kg
Protocol: This study included dose concentrations ranging from 2-120 mg/mL.

[9] = Metabolic stability in intestinal S9; assay type: in vitro ADME, Sprague-Dawley rat; conditions: Sprague-Dawley, intestinal S9; Rat; test conc. 3 μM
[10] = Metabolic stability in plasma; assay type: in vitro ADME; conditions: plasma; Human; test conc. 3 μM
[11] = Metabolic stability in liver S9; assay type: in vitro ADME, beagle dog; conditions: beagle, liver S9; Dog; test conc. 3 μM
VIM-2 = molecular target: T1, VIM-2 (Escherichia coli, UniProt Q5U7L7); test: Beta-lactamase enzyme inhibition (IC50); assay type: biochemical
T1 construct: expressed as native untagged proteins; made in house; host or cells: E. coli BL21(DE3)
Protocol: For VIM-2 metallo beta-lactamase, the procedure was identical with the following exceptions, first the protein was not pH adjusted to pH 5 with 50 mM sodium acetate, second, the chromatography step was changed to a 5 ml Q sepharose anion exchange column pre-equilibrated with 50 mM Hepes pH 7.5, and elution of the protein was achieved by a linear gradient of NaCl (0-600 mM). Finally, the VIM-2 purification required a second run (3rd step) on the Q sepharose anion exchange column to achieve acceptable purity (>90%).

[12] = Metabolic stability in plasma; assay type: in vitro ADME, CD-1 mouse; conditions: CD-1, plasma; Mouse; test conc. 3 μM
KPC-2 = molecular target: T2, KPC-2 (Klebsiella pneumoniae, UniProt Q9F663); test: Beta-lactamase enzyme inhibition (IC50); assay type: biochemical
T2 construct: expressed as native untagged proteins; made in house; host or cells: E. coli BL21(DE3)

IMP-1 = molecular target: T3, IMP-1 (Serratia marcescens, UniProt P52699); test: Beta-lactamase enzyme inhibition (IC50); assay type: biochemical
T3 construct: expressed as native untagged proteins; made in house; host or cells: E. coli BL21(DE3)

SHV-5 = molecular target: T4, SHV-5 (Klebsiella pneumoniae, UniProt P0A3M1); test: Beta-lactamase enzyme inhibition (IC50); assay type: biochemical
T4 construct: expressed as native untagged proteins; made in house; host or cells: E. coli BL21(DE3)

[13] = Metabolic stability in liver S9; assay type: in vitro ADME, CD-1 mouse; conditions: CD-1, liver S9; Mouse; test conc. 3 μM
NDM-1 = molecular target: T5, NDM-1 (Klebsiella pneumoniae, UniProt C7C422); test: Beta-lactamase enzyme inhibition (IC50); assay type: biochemical
T5 construct: expressed as native untagged proteins; made in house; host or cells: E. coli BL21(DE3)

[14] = Metabolic stability in plasma; assay type: in vitro ADME, beagle dog; conditions: beagle, plasma; Dog; test conc. 3 μM
OXA-1 = molecular target: T6, OXA-1 (Escherichia coli, UniProt P13661); test: Beta-lactamase enzyme inhibition (IC50); assay type: biochemical
T6 construct: expressed as native untagged proteins; made in house; host or cells: E. coli BL21(DE3)

[15] = Metabolic stability in plasma; assay type: in vitro ADME; conditions: cynomolgus, Monkey, test conc. 3 μM
[16] = Metabolic stability in liver S9; assay type: in vitro ADME, cynomolgus monkey; conditions: cynomolgus, liver S9; Monkey; test conc. 3 μM
[17] = Metabolic stability in intestinal S9; assay type: in vitro ADME, CD-1 mouse; conditions: CD-1, intestinal S9; Mouse; test conc. 3 μM
p99 AmpC = molecular target: T7, p99 AmpC (Enterobacter cloacae, UniProt P05364); assay type: biochemical
T7 construct: expressed as native untagged proteins; made in house; host or cells: E. coli BL21(DE3)

CTX-M-15 = molecular target: T8, CTX-M-15 (Escherichia coli, UniProt Q9EXV5); test: Beta-lactamase enzyme inhibition (IC50); assay type: biochemical
T8 construct: expressed as native untagged proteins; made in house; host or cells: E. coli BL21(DE3)

[18] = Metabolic stability in plasma; assay type: in vitro ADME; conditions: Sprague-Dawley, Rat, test conc. 3 μM

Structure (SMILES): O=C(O)[C@H]1/C(=C/CO)O[C@@H]2CC(=O)N21 [Clavulanic acid, clavulanic acid, reference compound]
- MIC of cefalexin (LEX) (E. coli 3174; with inhibitor at 4 μg/mL): 0.25 µg/mL
- MIC of cefdinir (CDR) (E. coli 3174; with inhibitor at 4 μg/mL): 0.25 µg/mL
- MIC of cefixime (CFM) (E. coli 3174; with inhibitor at 4 μg/mL): 0.5 µg/mL
- MIC of ceftibuten (CTB) (E. coli 3174; with inhibitor at 4 μg/mL): 0.5 µg/mL
- MIC50 [1]: 8 µg/mL
- MIC90 [1]: > 32 µg/mL
- MIC50 [2]: 4 µg/mL
- MIC90 [2]: 32 µg/mL
- MIC50 [3]: 0.5 µg/mL
- MIC90 [3]: 2 µg/mL
- MIC50 [4]: 2 µg/mL
- MIC90 [4]: > 32 µg/mL

Structure (SMILES): Nc1nc(/C(=C/CC(=O)O)C(=O)N[C@@H]2C(=O)N3C(C(=O)O)=CCS[C@H]23)cs1 [Ceftibuten, ceftibuten, reference compound]
- Number of strains at MIC value 0.5 mg/L ([5]; KPC-expressing (n = 77)): 2
- Number of strains at MIC value 1 mg/L ([5]; KPC-expressing (n = 77)): 2
- Number of strains at MIC value 2 mg/L ([5]; KPC-expressing (n = 77)): 4
- Number of strains at MIC value 4 mg/L ([5]; KPC-expressing (n = 77)): 7
- Number of strains at MIC value 8 mg/L ([5]; KPC-expressing (n = 77)): 13
- Number of strains at MIC value 16 mg/L ([5]; KPC-expressing (n = 77)): 24
- Number of strains at MIC value […] ([5]; KPC-expressing (n = 77)): 0
- Number of strains at MIC value ≤0.06 mg/L ([5]; KPC-expressing (n = 77)): 0
- Number of strains at MIC value ≥32 mg/L ([5]; KPC-expressing (n = 77)): 25
- MIC90 ([5]; iv): ≥ 32 µg/mL
- MIC ([6]; read-out: ceftibuten MICs): ≥ 32 µg/mL
- MIC (E. coli 3174; Escherichia coli, 3174, alone, read-out: MIC of ceftibuten (CTB)): 0.5 µg/mL
- Number of strains at MIC value 0.5 mg/L ([7]; AmpC/CMY-expressing (n = 44)): 0
- Number of strains at MIC value 1 mg/L ([7]; AmpC/CMY-expressing (n = 44)): 1
- Number of strains at MIC value 2 mg/L ([7]; AmpC/CMY-expressing (n = 44)): 5
- Number of strains at MIC value 4 mg/L ([7]; AmpC/CMY-expressing (n = 44)): 3
- Number of strains at MIC value 8 mg/L ([7]; AmpC/CMY-expressing (n = 44)): 7
- Number of strains at MIC value 16 mg/L ([7]; AmpC/CMY-expressing (n = 44)): 7
- Number of strains at MIC value […] ([7]; AmpC/CMY-expressing (n = 44)): 0
- Number of strains at MIC value ≤0.06 mg/L ([7]; AmpC/CMY-expressing (n = 44)): 1
- Number of strains at MIC value ≥32 mg/L ([7]; AmpC/CMY-expressing (n = 44)): 20
- MIC50 ([7]; iv): ≥ 32 µg/mL
- MIC90 ([7]; iv): ≥ 32 µg/mL

Structure (SMILES): CCC(=O)N[C@H]1Cc2cccc(C(=O)O)c2OB1O [Compound 2, (R)-2-hydroxy-3-propionamido-3,4-dihydro-2H-benzo[e][1,2]oxaborinine-8-carboxylic acid]
- AUC(0-inf) [8]: 6700 ng·h/mL
- Cmax [8]: 23700 ng/mL
- half-life at 3 μM [9]: > 2 h
- half-life at 3 μM [10]: > 2 h
- half-life at 3 μM [11]: > 2 h
- IC50 (VIM-2): 9040 nM
- half-life at 3 μM [12]: > 2 h
- IC50 (KPC-2): 80 nM
- IC50 (IMP-1): > 100000 nM
- IC50 (SHV-5): 368 nM
- half-life at 3 μM [13]: > 2 h
- IC50 (NDM-1): 38100 nM
- ceftibuten MICs ([6]; with Compound 2 fixed at 4 mg/L): ≤ 2 µg/mL
- half-life at 3 μM [14]: > 2 h
- IC50 (OXA-1): 66 nM
- half-life at 3 μM [15]: > 2 h
- half-life at 3 μM [16]: > 2 h
- MIC50 [1]: 0.125 µg/mL
- MIC90 [1]: 0.5 µg/mL
- MIC50 [2]: 0.25 µg/mL
- MIC90 [2]: 1 µg/mL
- MIC50 [3]: 0.25 µg/mL
- MIC90 [3]: 0.5 µg/mL
- MIC50 [4]: 0.25 µg/mL
- MIC90 [4]: 1 µg/mL
- half-life at 3 μM [17]: > 2 h
- k−2 (p99 AmpC): 24 ± 0.5 10^−4 s^−1
- t1/2 (p99 AmpC): 5.0 ± 0.1 min
- IC50 (CTX-M-15): 18 nM
- half-life at 3 μM [18]: > 2 h

— patent publication US12544395B2, “Combination compositions comprising a beta-lactamase inhibitor and uses thereof” (priority 2018, dated 2026)
